Patent publication US4395405A, “Alkyl-ketohexopyranoside derivatives and method of use” (Hisamitsu Pharmaceutical Co., Inc., priority 1979, dated 1983)

Experiments:
IgE antibodies [1] = assay: Formation of homocytotropic antibodies in mice, PCA reaction; assay type: in vivo, mice (BALB/c strain), female; conditions: 100 mg/Kg/day for 5 days
Experimental: (§1) The collected serum was diluted in various concentrations and intradermally injected to other rats. Forty-eight (48) hours after the injection, 2 mg of DNP-As as protein and 0.5 ml of a 1% Evans Blue were intravenously injected into these rats to determine the dilution of the serum which induced the minimum extravasted dye. It should be noted that the symbols "*" and "**" in the following Tables indicate significant differences at risks of 5% and 1%, respectively.
(§2) Effects on the formation of homocytotropic antibodies in mice
(§3) Groups each consisting of 5 female mice (BALB/c strain) were used in this experiment. The mice were sensitized with 10 μg of DNP-As as protein and 3 mg of Al(OH)3, after which the test compound was administered to the sensitized mice for 5 days (at a dose of 100 mg/Kg/day). After the sensitization, a sample of serum was collected from the mice and treated in the same manner as in Experiment 1 to determine the amount of antibodies formed. […]

IgG and IgM [2] = assay: Amount of antibodies formed in mice, PHA reaction; assay type: in vivo, mice (BALB/c strain), female; conditions: 100 mg/Kg/day for 5 days
Experimental: The collected serum was diluted in various concentrations and incubated with sheep red blood cells coupled with DNP-As using bis-diazoated benzydine to determine the dilution of the serum which induced the minimum hemaglutination.
as §2, §3

[3] = Acute poisoning test on rats; conditions: rat, in vivo, three weeks
Experimental: (§4) Each of the test compounds was suspended in a physiological solution of sodium chloride containing 0.5% of tragacanth gum to obtain a test suspension. The test suspensions so obtained were administered to rats and mice in various ways. LD50 was calculated from test animals which died in three weeks after the start of the test.

IgE antibodies [4] = assay: Formation of homocytotropic antibodies in rats, PCA (passive cutaneous anaphylaxis) reaction; assay type: in vivo, rats of wistar strain; conditions: Table 3 right half, hypodermic administration; serum 8 days after sensitization; control 269.2 (218.8-331.1)
Experimental: (§5) Effects on the formation of homocytotropic antibodies in rats
(§6) An experiment was carried out in accordance with the Tada and Okumura's method (J. Immunol., Vol. 106, p 1002, 1971).
(§7) Groups each consisting of 8-9 rats of wistar strain were used in this experiment.
(§8) As shown in Tables 2-5, to the four legs of the rats were injected 1 mg of dinitrophenylated extract of ascaris suum (DNP-As) as protein and 10^10 cells of vaccinum pertussis (B. Pertussis) for sensitization, after which the compounds of this invention were administered to the injected rats for 5 days. Eight to nine days after the sensitization, bloodletting was effected on these rats to collect their serum for estimating the amount of antibodies formed using passive cutaneous anaphylaxis (PCA) reactions and phytohemaglutinin (PHA) reactions.
(1) Estimation of the amount of antibodies by PCA reaction:
as §1, with “respectively. […]” for “respectively.”

IgG and IgM [5] = assay: Amount of antibodies formed in rats, PHA (phytohemaglutinin) reaction; assay type: in vivo, rats of wistar strain; conditions: Table 5 right half, hypodermic administration; serum 8 days after sensitization; control 3235.9 (2454.7-4265.8)
Experimental: as §5, §6, §7, §8
(2) Estimation of the amount of antibodies by PHA reaction:
The collected serum was diluted in various concentrations and incubated with sheep red blood cells coupled with DNP-As using bis-diazoated benzydine to determine the dilution of the serum which induced the minimum hemaglutination. […]

[6] = Acute poisoning test on mice; conditions: mouse, in vivo, three weeks
Experimental: as §4

In the case of `CC(C)COC1(CO)OCC(O)C(O)C1O` [Compound No. 10, isobutyl-α-L-sorbopyranoside], the “PCA of mice (serum dilution)” value (IgE antibodies [1]; Table 7, oral, serum 10 days after sensitization, control 537.0 (436.5-660.7)) is reported as 501.2, the “PCA of mice (serum dilution)” value (IgE antibodies [1]; Table 8, hypodermic, serum 9 days after, control 708.0 (575.4-871.0)) is reported as 537.0 and the “PCA of mice (serum dilution)” value (IgE antibodies [1]; Table 8, hypodermic, serum 10 days after, control 537.0 (380.2-758.6)) is reported as 708.0. For the same compound, the “PCA of mice (serum dilution)” value (IgE antibodies [1]; Table 8, hypodermic, serum 37 days after, control 2818.4 (1862.1-4265.8)) was 1513.6, the “PHA of mice (serum dilution)” value (IgG and IgM [2]; Table 10, oral, serum 10 days after, control 125.9 (95.5-166.0)) was 109.7 and the “PHA of mice (serum dilution)” value (IgG and IgM [2]; Table 11, hypodermic, serum 9 days after, control 380.2 (269.2-537.0)) was 154.9 (125.9-190.6). The “PHA of mice (serum dilution)” value (IgG and IgM [2]; Table 11, hypodermic, serum 10 days after, control 109.7 (95.5-125.9)) was 102.3 (83.2-125.9), the “PHA of mice (serum dilution)” value (IgG and IgM [2]; Table 11, hypodermic, serum 37 days after, control 1071.5 (871.0-1318.3)) was 1148.2 (933.3-1412.5) and the LD50 at 504 h ([3]; ip, abdominally, female) was ~2000 mg/kg. For the same compound, the LD50 at 504 h ([3]; ip, abdominally, male) was ~2000 mg/kg, the LD50 at 504 h ([3]; iv, intravenously, female) was 1000 to 2000 mg/kg and the LD50 at 504 h ([3]; iv, intravenously, male) was 1000 to 2000 mg/kg. The LD50 at 504 h ([3]; po, orally, female) was > 5000 mg/kg, the LD50 at 504 h ([3]; po, orally, male) was > 5000 mg/kg and the LD50 at 504 h ([3]; sc, hypodermically, female) was > 5000 mg/kg. The LD50 at 504 h ([3]; sc, hypodermically, male) was > 5000 mg/kg, the “PCA of rat: dilution of the serum which induced the minimum extravasted dye” value (IgE antibodies [4]) was 177.8 (134.9-234.4) and the “PHA of rat: dilution of the serum which induced the minimum hemaglutination” value (IgG and IgM [5]) was 5248.1 (3715.4-7413.1). It also gave an LD50 at 504 h ([6]; ip, abdominally, female) of 500 to 1000 mg/kg, an LD50 at 504 h ([6]; ip, abdominally, male) of 500 to 1000 mg/kg and an LD50 at 504 h ([6]; iv, intravenously, female) of 1000 to 2000 mg/kg. The LD50 at 504 h ([6]; iv, intravenously, male) was 1000 to 2000 mg/kg, the LD50 at 504 h ([6]; po, orally, female) was 2000 to 5000 mg/kg and the LD50 at 504 h ([6]; po, orally, male) was 2000 to 5000 mg/kg. It also gave an LD50 at 504 h ([6]; sc, hypodermically, female) of ~2000 mg/kg and an LD50 at 504 h ([6]; sc, hypodermically, male) of ~2000 mg/kg.
